# Results reported in patent publication US20260285850A1, “SUBSTITUTED OXAZOLIDINONES AND IMIDAZOLINONES AS HERBICIDES” (FMC CORPORATION, priority 2023, published 2026).
# Assays:
# Type in all cases: in vivo
# [1] = system: horseweed (Erigeron canadensis); assay: Test A postemergence application, visual injury rating 0-100; conditions: Postemergence, 10 days; for Horseweed plant response rating (0 to 100 scale): 0 is no effect, 100 is complete control
# How it was run: (§1)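 Plants were grown in a loam soil-sand blend and treated with test chemical in a non-phytotoxic solvent mixture containing surfactant, either sprayed on soil preemergence or applied postemergence to 2-10 cm plants. After 10 days in a greenhouse, injury was scored visually against untreated controls, 0 meaning no effect and 100 complete control.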
# [2] = system: galium (catchweed bedstraw, Galium aparine); assay: as above; conditions: Postemergence, 10 days; for Galium plant response rating (0 to 100 scale): 0 is no effect, 100 is complete control
# How it was run: as §1
# [3] = system: blackgrass (Alopecurus myosuroides); assay: as above; conditions: Postemergence, 10 days; for Blackgrass plant response rating (0 to 100 scale): 0 is no effect, 100 is complete control
# How it was run: as §1
# [4] = system: ryegrass, Italian (italian ryegrass, Lolium multiflorum); assay: as above; conditions: Postemergence, 10 days; for Ryegrass, Italian plant response rating (0 to 100 scale): 0 is no effect, 100 is complete control
# How it was run: as §1
# [5] = system: goosegrass (Eleusine indica); assay: as above; conditions: 10 days; for Goosegrass plant response rating (0 to 100 scale): 0 is no effect, 100 is complete control
# How it was run: as §1
# [6] = system: foxtail, giant (giant foxtail, Setaria faberi); assay: as above; conditions: 10 days; for Foxtail, Giant plant response rating (0 to 100 scale): 0 is no effect, 100 is complete control
# How it was run: as §1
# [7] = system: ragweed (common ragweed, Ambrosia artemisiifolia); assay: as above; conditions: Postemergence, 10 days; for Ragweed plant response rating (0 to 100 scale): 0 is no effect, 100 is complete control
# How it was run: as §1
# [8] = system: palmer (palmer amaranth, palmer pigweed, Amaranthus palmeri); assay: as above; conditions: Postemergence, 10 days; for Amaranth, Palmer / Pigweed, Palmer plant response rating (0 to 100 scale): 0 is no effect, 100 is complete control
# How it was run: as §1
# kochia (Bassia scoparia) [9] = assay: as above; conditions: Postemergence, 10 days; for Kochia plant response rating (0 to 100 scale): 0 is no effect, 100 is complete control
# How it was run: as §1
# [10] = system: blackgrass (Alopecurus myosuroides); assay: Test A preemergence soil spray, visual injury rating 0-100; conditions: 10 days, 0 = no effect, 100 = complete control
# How it was run: as §1
# [11] = system: ryegrass, Italian (italian ryegrass, Lolium multiflorum); assay: as above; conditions: 10 days, 0 = no effect, 100 = complete control
# How it was run: as §1
# [12] = system: goosegrass (Eleusine indica); assay: as above; conditions: 10 days, 0 = no effect, 100 = complete control
# How it was run: as §1
# [13] = system: foxtail, giant (giant foxtail, Setaria faberi); assay: as above; conditions: 10 days, 0 = no effect, 100 = complete control
# How it was run: as §1
# [14] = system: ragweed (common ragweed, Ambrosia artemisiifolia); assay: as above; conditions: 10 days, 0 = no effect, 100 = complete control
# How it was run: as §1
# [15] = system: palmer (palmer amaranth, palmer pigweed, Amaranthus palmeri); assay: as above; conditions: 10 days, 0 = no effect, 100 = complete control
# How it was run: as §1
# kochia (Bassia scoparia) [16] = assay: as above; conditions: 10 days, 0 = no effect, 100 = complete control
# How it was run: as §1
# [17] = system: barnyardgrass (Echinochloa crusgalli); assay: Test B flooded paddy test, visual plant response rating 0-100; conditions: 250 g ai/ha, Flood, applied to paddy water, evaluated after 13 days
# How it was run: (§2)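 Greenhouse, 13 d. Seedlings at 2-leaf stage, pots flooded to 3 cm, compound delivered into floodwater, water level held constant. Evaluated visually relative to controls.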
# [18] = system: ducksalad (Heteranthera limosa); assay: as above; conditions: 250 g ai/ha, Flood, applied to paddy water, evaluated after 13 days
# How it was run: as §2
# rice (Oryza sativa) = assay: as above; conditions: 250 g ai/ha, Flood, applied to paddy water, evaluated after 13 days
# How it was run: as §2
# [19] = system: sedge, umbrella (small-flower umbrella sedge, Cyperus difformis); assay: as above; conditions: 250 g ai/ha, Flood, applied to paddy water, evaluated after 13 days
# How it was run: as §2
# [20] = system: oat, wild (wild oat, Avena fatua); assay: Test A postemergence application, visual injury rating 0-100; conditions: Postemergence, 10 days, 0 is no effect, 100 is complete control
# How it was run: as §1
# soybean (Glycine max) [21] = assay: as above; conditions: Postemergence, 10 days, 0 is no effect, 100 is complete control
# How it was run: as §1
# [22] = system: wheat (Triticum aestivum); assay: as above; conditions: Postemergence, 10 days, 0 is no effect, 100 is complete control
# How it was run: as §1
# corn (Zea mays) [23] = assay: as above; conditions: Postemergence, 10 days, 0 is no effect, 100 is complete control
# How it was run: as §1
# [24] = system: oat, wild (wild oat, Avena fatua); assay: Test A preemergence soil spray, visual injury rating 0-100; conditions: 10 days, 0 = no effect, 100 = complete control
# How it was run: as §1
# soybean (Glycine max) [25] = assay: as above; conditions: 10 days, 0 = no effect, 100 = complete control
# How it was run: as §1
# [26] = system: wheat (Triticum aestivum); assay: as above; conditions: 10 days, 0 = no effect, 100 = complete control
# How it was run: as §1
# corn (Zea mays) [27] = assay: as above; conditions: 10 days, 0 = no effect, 100 = complete control
# How it was run: as §1
smiles,measurement,setting,value
CCOC(=O)C1C=CC(NC(=O)C2(C)CN(c3cc(F)cc(F)c3)C(=O)O2)C1 (centres unmarked) [Compound 28],Horseweed plant response rating,"[1]; 1000 g ai/ha, 0 to 100 scale",80
same,Galium plant response rating,"[2]; 1000 g ai/ha, 0 to 100 scale",70
same,Blackgrass plant response rating,"[3]; 1000 g ai/ha, 0 to 100 scale",100
same,"Ryegrass, Italian plant response rating","[4]; 1000 g ai/ha, 0 to 100 scale",80
same,Goosegrass plant response rating,"[5]; 1000 g ai/ha, 0 to 100 scale",90
same,"Foxtail, Giant plant response rating","[6]; 1000 g ai/ha, 0 to 100 scale",90
same,Ragweed plant response rating,"[7]; 1000 g ai/ha, 0 to 100 scale",70
same,"Amaranth, Palmer plant response rating","[8]; 1000 g ai/ha, 0 to 100 scale",90
same,Kochia plant response rating,"kochia (Bassia scoparia) [9]; 1000 g ai/ha, 0 to 100 scale",80
same,Blackgrass plant response rating (0 to 100 scale),[10]; 1000 g ai/ha,90
same,"Ryegrass, Italian plant response rating (0 to 100 scale)",[11]; 1000 g ai/ha,100
same,Goosegrass plant response rating (0 to 100 scale),[12]; 1000 g ai/ha,100
same,"Foxtail, Giant plant response rating (0 to 100 scale)",[13]; 1000 g ai/ha,100
same,Ragweed plant response rating (0 to 100 scale),[14]; 1000 g ai/ha,80
same,"Amaranth, Palmer / Pigweed, Palmer plant response rating (0 to 100 scale)",[15]; 1000 g ai/ha,100
same,Kochia plant response rating (0 to 100 scale),kochia (Bassia scoparia) [16]; 1000 g ai/ha,100
same,"Plant response rating, Barnyardgrass (0 to 100 scale, 0 is no effect and 100 is complete control)",[17],85
same,"Plant response rating, Ducksalad (0 to 100 scale, 0 is no effect and 100 is complete control)",[18],75
same,"Plant response rating, Rice (0 to 100 scale, 0 is no effect and 100 is complete control)",rice (Oryza sativa),70
same,"Plant response rating, Sedge, Umbrella (0 to 100 scale, 0 is no effect and 100 is complete control)",[19],65
CONC(=O)C1C=CC(NC(=O)C2(C)CN(c3cc(F)cc(F)c3)C(=O)O2)C1 (centres unmarked) [Compound 25],"Oat, Wild plant response rating (0 to 100 scale)",[20]; 125 g ai/ha,90
same,"Oat, Wild plant response rating (0 to 100 scale)",[20]; 500 g ai/ha,100
same,Horseweed plant response rating (0 to 100 scale),[1]; 125 g ai/ha,60
same,Horseweed plant response rating (0 to 100 scale),[1]; 500 g ai/ha,80
same,Soybean plant response rating (0 to 100 scale),soybean (Glycine max) [21]; 125 g ai/ha,70
same,Soybean plant response rating (0 to 100 scale),soybean (Glycine max) [21]; 500 g ai/ha,80
same,Wheat plant response rating (0 to 100 scale),[22]; 125 g ai/ha,80
same,Wheat plant response rating (0 to 100 scale),[22]; 500 g ai/ha,80
same,Galium plant response rating (0 to 100 scale),[2]; 125 g ai/ha,80
same,Galium plant response rating (0 to 100 scale),[2]; 500 g ai/ha,80
same,Corn plant response rating (0 to 100 scale),corn (Zea mays) [23]; 125 g ai/ha,100
same,Corn plant response rating (0 to 100 scale),corn (Zea mays) [23]; 500 g ai/ha,100
same,Blackgrass plant response rating (0 to 100 scale),[3]; 125 g ai/ha,80
same,Blackgrass plant response rating (0 to 100 scale),[3]; 500 g ai/ha,90
same,"Ryegrass, Italian plant response rating (0 to 100 scale)",[4]; 125 g ai/ha,60
same,"Ryegrass, Italian plant response rating (0 to 100 scale)",[4]; 500 g ai/ha,60
same,Goosegrass plant response rating (0 to 100 scale),[5]; 125 g ai/ha,90
same,Goosegrass plant response rating (0 to 100 scale),[5]; 500 g ai/ha,90
same,"Foxtail, Giant plant response rating (0 to 100 scale)",[6]; 125 g ai/ha,90
same,"Foxtail, Giant plant response rating (0 to 100 scale)",[6]; 500 g ai/ha,90
same,Ragweed plant response rating (0 to 100 scale),[7]; 125 g ai/ha,60
same,Ragweed plant response rating (0 to 100 scale),[7]; 500 g ai/ha,80
same,"Amaranth, Palmer / Pigweed, Palmer plant response rating (0 to 100 scale)",[8]; 125 g ai/ha,90
same,"Amaranth, Palmer / Pigweed, Palmer plant response rating (0 to 100 scale)",[8]; 500 g ai/ha,90
same,Kochia plant response rating (0 to 100 scale),kochia (Bassia scoparia) [9]; 125 g ai/ha,80
same,Kochia plant response rating (0 to 100 scale),kochia (Bassia scoparia) [9]; 500 g ai/ha,90
same,"Oat, Wild plant response rating (0 to 100 scale)",[24]; 125 g ai/ha,80
same,"Oat, Wild plant response rating (0 to 100 scale)",[24]; 500 g ai/ha,90
same,Soybean plant response rating (0 to 100 scale),soybean (Glycine max) [25]; 125 g ai/ha,0
same,Soybean plant response rating (0 to 100 scale),soybean (Glycine max) [25]; 500 g ai/ha,70
same,Wheat plant response rating (0 to 100 scale),[26]; 125 g ai/ha,60
same,Wheat plant response rating (0 to 100 scale),[26]; 500 g ai/ha,100
same,Corn plant response rating (0 to 100 scale),corn (Zea mays) [27]; 125 g ai/ha,50
same,Corn plant response rating (0 to 100 scale),corn (Zea mays) [27]; 500 g ai/ha,90
same,Blackgrass plant response rating (0 to 100 scale),[10]; 125 g ai/ha,40
same,Blackgrass plant response rating (0 to 100 scale),[10]; 500 g ai/ha,90
same,"Ryegrass, Italian plant response rating (0 to 100 scale)",[11]; 125 g ai/ha,60
same,"Ryegrass, Italian plant response rating (0 to 100 scale)",[11]; 500 g ai/ha,90
same,Goosegrass plant response rating (0 to 100 scale),[12]; 125 g ai/ha,30
same,Goosegrass plant response rating (0 to 100 scale),[12]; 500 g ai/ha,100
same,"Foxtail, Giant plant response rating (0 to 100 scale)",[13]; 125 g ai/ha,20
same,"Foxtail, Giant plant response rating (0 to 100 scale)",[13]; 500 g ai/ha,90
same,Ragweed plant response rating (0 to 100 scale),[14]; 125 g ai/ha,0
same,Ragweed plant response rating (0 to 100 scale),[14]; 500 g ai/ha,30
same,"Amaranth, Palmer plant response rating (0 to 100 scale)",[15]; 125 g ai/ha,10
same,"Amaranth, Palmer plant response rating (0 to 100 scale)",[15]; 500 g ai/ha,80
same,Kochia plant response rating (0 to 100 scale),kochia (Bassia scoparia) [16]; 125 g ai/ha,30
same,Kochia plant response rating (0 to 100 scale),kochia (Bassia scoparia) [16]; 500 g ai/ha,90
